Literature values, collected in US20070275008A1, “Synergistic Diabetic Phyto-Nutraceutical Composition” (priority 2006, published 2007).

Assays:
[1] = tested on: hepatic toxicity induced by paracetamol, prednisolone and bromobenzene; conditions: mice; pre-treatment during ten days
[2] = tested on: bacterial resistance mechanism against the berberine antimicrobial; conditions: in vitro; in the presence of 5′-MHC

| Structure (SMILES) | hepatic toxicity induced by paracetamol, prednisolone and bromobenzene [1] | accumulation of berberine in the cells [2] |
| --- | --- | --- |
| COc1cc(/C=C/C(=O)[O-])ccc1O.[Na+] [sodium ferulate] | improved the hepatic toxicity | – |
| COc1cc([C@H]2Oc3cc(-c4cc(=O)c5c(O)cc(O)cc5o4)cc(OC)c3O[C@@H]2CO)ccc1O (racemic) [5′-MHC, 5′-methoxyhydnocarpin] | – | strong increase of accumulation of berberine in the cells |
